Reference: publication PMC3681492, “Identification and Characterization of a Novel Chemotype MEK Inhibitor Able to Alter the Phosphorylation State of MEK1/2” (Oncotarget, 2012)
Values belong to the compound of their own block, whether it stands above or below them.

Experiments:
MEK1/2 = assay: Competitive pull-down with JTP-74100-conjugated resin from HT-29 cytosolic fraction; type: binding, human; details: 46-kDa band on SDS-PAGE
ACHN cells = assay: Western blot of MEK and ERK phosphorylation in ACHN cells; type: cell-based, human; details: ACHN cells (K-Ras mutated, B-Raf unmutated), 24 h
Procedure: (§1) Cultured cells were treated with various compounds and then lysed in lysis buffer (50 mM Tris-HCl pH 7.4, 150 mM NaCl, 1 mM EGTA, 1 mM Na3Vo4, 1% Triton X-100 and EDTA-free protease inhibitor cocktail). The cell lysates were collected and centrifuged, and the supernatants were subjected to SDS-PAGE. After the electrophoresis, the proteins were transferred onto PVDF membranes at 1 mA/cm^2 for 1 h. The membranes were incubated in blocking solution (Blockace; Nacalai Tesque, Kyoto, Japan) and washed with PBS containing 0.1% Tween 20 (PBS/T). The membranes were then incubated with the primary antibody, washed three times with PBS/T and incubated with the secondary antibody. After washing with PBS/T, the membranes were incubated with ECL-Plus or ECL-Advanced western blot reagents (GE Healthcare, Little Chalfont, Buckinghamshire, UK) for 5 min, exposed to ECL Hyperfilm and visualized using a LAS3000 imager (Fujifilm).

HT-29 cells [1] = assay: Western blot of MEK and ERK phosphorylation in HT-29 cells; type: cell-based, human; details: for MEK phosphorylation status after pulse treatment: 2 h treatment then washout
[2] = tested on: HT-29 cells and ACHN cells; assay: Western blot of downstream signaling molecules (c-Myc, cyclin D1, p15INK4b, p27KIP1); type: cell-based, human; details: 24 h treatment
Procedure: as §1
Supplemental Table: Identif ied Peptide Sequences of 46 kDa Proteins.
ACCESSION Start - End Obsrved Mr(expt) Mr(calc) Sequence
Supp lemental Figure: Alterations of downstream signaling molecules in cancer cells by
(A, B) HT-29 cells (A) and ACHN cells (B) were treated with the
indicated concentrations of each compound for 24 h,same as the experiment of F ig u re 3A. And
the cell lysates were analyzed by western blotting using antibodies specific to c-M yc (Upstate […]

HT-29 cells [3] = assay: Growth inhibition of HT-29 cells by [3H]-TdR incorporation; type: cell-based; details: Homo sapiens, [3H]-TdR incorporation during last 6 h of 3-day culture, read-out: growth inhibitory activity (IC50)
Procedure: HT-29 cells were cultured in McCoy's 5a medium supplemented with 10% (v/v) fetal bovine serum and antibiotics. ACHN and HEK293T cells were maintained in Dulbecco's modified Eagle's medium supplemented with 10% (v/v) fetal bovine serum and antibiotics in a humidified CO2 incubator. The growth inhibitory activities of compounds toward HT-29 cells were determined by [^3H]-TdR incorporation for the last 6 h of a 3-day culture period. […] The lysed cells were then homogenized by 20 strokes of a loose-fitting Dounce homogenizer and centrifuged for 6 min at 4,300×g to separate the nuclei from the cytoplasmic fraction. The cytoplasmic fraction was ultracentrifuged for 1 h at 150,000×g and the supernatant was dialyzed against a buffer containing 20 mM HEPES (pH 7.9), 20% (v/v) glycerol, 0.1 M KCl, 0.2 mM EDTA, 0.5 mM PMSF and 0.5 mM DTT for 5 h at 4°C. After centrifugation for 20 min at 15,000×g, the supernatant was collected as the cytosolic fraction.

Raf kinase = Raf kinase activity, phosphorylation of MBP; details: for phosphorylation of the Raf kinase substrate MBP: at concentrations below 10 μM
B-Raf = B-Raf (Homo sapiens, UniProt P15056, V600E); assay: biochemical
c-Raf = c-Raf (Homo sapiens, UniProt P04049); assay: Raf/MBP kinase assay, c-Raf
Inactive u-MEK (K97R) = Inactive u-MEK (K97R) (Homo sapiens, UniProt Q02750, K97R); assay: Temperature-dependent CD analysis of u-MEK; details: 10 μM compound, 3 μM u-MEK; u-MEK alone 50.2 °C
[4] = cited from earlier work
various cancer cells = assay: Western blot of MEK and ERK phosphorylation in various cancer cell lines; type: cell-based; details: 2 h
Procedure: as §1

[5] = parameters: method as in PMID 22805291; details: orally administered, cancer patients, phase I study; cited from earlier work
p-MEK1 = target: T1, p-MEK1 (Homo sapiens, UniProt Q02750); assay: Kinetic (double-reciprocal) analysis of MEK inhibition in the MEK-ERK reaction; type: biochemical; details: p-MEK-ATP complex, double-reciprocal plots vs ATP
T1 construct: purchased Upstate Technology (Waltham, MA)

Chain of B-Raf (P15056 whole entry V600E): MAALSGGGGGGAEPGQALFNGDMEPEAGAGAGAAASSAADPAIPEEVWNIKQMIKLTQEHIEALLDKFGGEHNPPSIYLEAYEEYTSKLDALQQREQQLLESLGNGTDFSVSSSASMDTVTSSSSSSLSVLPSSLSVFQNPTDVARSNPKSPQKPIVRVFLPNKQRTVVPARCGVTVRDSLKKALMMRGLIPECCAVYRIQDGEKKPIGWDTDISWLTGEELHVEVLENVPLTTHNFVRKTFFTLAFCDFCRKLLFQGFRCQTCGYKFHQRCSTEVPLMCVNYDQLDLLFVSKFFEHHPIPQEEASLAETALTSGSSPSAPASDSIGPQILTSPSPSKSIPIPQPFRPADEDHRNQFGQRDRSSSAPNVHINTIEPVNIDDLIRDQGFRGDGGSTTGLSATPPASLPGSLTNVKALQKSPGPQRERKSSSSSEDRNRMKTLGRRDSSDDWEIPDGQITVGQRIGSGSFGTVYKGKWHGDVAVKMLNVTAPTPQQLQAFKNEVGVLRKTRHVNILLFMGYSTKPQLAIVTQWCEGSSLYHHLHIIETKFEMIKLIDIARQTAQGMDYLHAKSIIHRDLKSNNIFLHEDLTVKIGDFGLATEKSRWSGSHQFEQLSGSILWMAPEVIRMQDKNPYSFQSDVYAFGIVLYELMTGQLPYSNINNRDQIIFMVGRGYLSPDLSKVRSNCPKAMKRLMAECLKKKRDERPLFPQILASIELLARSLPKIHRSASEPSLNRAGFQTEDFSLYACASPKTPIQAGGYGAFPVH
Chain of c-Raf (P04049 306-648): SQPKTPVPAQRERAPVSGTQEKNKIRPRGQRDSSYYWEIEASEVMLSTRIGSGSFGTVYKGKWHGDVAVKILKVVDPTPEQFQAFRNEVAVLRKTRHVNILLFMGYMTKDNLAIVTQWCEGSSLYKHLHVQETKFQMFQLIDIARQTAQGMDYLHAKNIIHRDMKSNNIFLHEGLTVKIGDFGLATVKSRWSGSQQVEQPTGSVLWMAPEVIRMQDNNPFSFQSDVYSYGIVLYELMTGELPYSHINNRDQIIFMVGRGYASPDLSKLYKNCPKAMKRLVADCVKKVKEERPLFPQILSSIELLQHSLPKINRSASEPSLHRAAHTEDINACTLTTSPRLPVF

- IC50 (HT-29 cells [3]): 2.1 nM
SMILES: CCCCC(=O)NCCC(=O)Nc1cccc(-n2c(=O)n(C3CC3)c(=O)c3c(Nc4ccc(I)cc4F)n(C)c(=O)c(C)c32)c1 [pentanoyl JTP-74100]

- concentration needed to clearly compete with JTP-74100-immobilized resin for binding to MEK (MEK1/2): above 10 μM
- IC50 (HT-29 cells [3]): 0.39 nM
SMILES: Cn1c(=O)cc(Nc2ccc(I)cc2F)c2c(=O)n(C3CC3)c(=O)n(-c3cccc(NS(C)(=O)=O)c3)c21 [JTP-70945]

- IC50 (HT-29 cells [3]): 840 nM
SMILES: CCCCC(=O)NCCC(=O)Nc1cccc(-n2c(=O)n(C3CC3)c(=O)c3c(Nc4ccccc4F)n(C)c(=O)c(C)c32)c1 [pentanoyl JTP-74099]

- concentration needed to clearly compete with JTP-74100-immobilized resin for binding to MEK (MEK1/2): > 100 µM
- IC50 (HT-29 cells [3]): > 10000 nM
SMILES: COc1ccccc1Nc1cc(=O)n(C)c2c1c(=O)n(-c1ccccc1)c(=O)n2-c1ccccc1 [JTP-65634]

The next lines start with the compound.

SMILES: N#CC(=C(/N)Sc1ccccc1N)/C(C#N)=C(\N)Sc1ccccc1N [U0126, reference compound]
- concentration needed to clearly compete with JTP-74100-immobilized resin for binding to MEK (MEK1/2): 100 µM

SMILES: O=C(NOC[C@H](O)CO)c1ccc(F)c(F)c1Nc1ccc(I)cc1F [PD0325901, reference compound]
- accumulation of p-MEK (ACHN cells): induced significant accumulation of p-MEK
- time for p-ERK level to return to nearly normal level after removal (HT-29 cells [1]; 100 nM for 2 h then washout): ≤ 1 h
- MEK phosphorylation status after pulse treatment (HT-29 cells [1]): did not affect the MEK phosphorylation status
- ERK phosphorylation (HT-29 cells [1]; 24 h): inhibited ERK phosphorylation
- concentration at which accumulation of p15INK4b and p27KIP1 and decrease of c-Myc and Cyclin D1 were observed [2]: 10 nM
- IC50 (HT-29 cells [3]): 3.4 nM
- phosphorylation of the Raf kinase substrate MBP (Raf kinase): not inhibited

SMILES: CNC(=O)c1cc(Oc2ccc(NC(=O)Nc3ccc(Cl)c(C(F)(F)F)c3)cc2)ccn1 [BAY 43-9006]
- concentration that inhibited Raf kinase activity (Raf kinase; same conditions as Raf/MBP assay, data not shown): 0.1 µM

SMILES: CC(=O)Nc1cccc(-n2c(=O)n(C3CC3)c(=O)c3c(Nc4ccc(I)cc4F)n(C)c(=O)c(C)c32)c1 [JTP-74057]
- accumulation of p-MEK (ACHN cells): did not significantly, or slightly if any, induce accumulation of p-MEK
- IC50 (B-Raf): > 10000 nM
- IC50 (c-Raf): > 10000 nM
- time at which p-MEK level was decreased (HT-29 cells [1]; 10 nM): ≤ 15 min
- time at which p-MEK was almost ablated (HT-29 cells [1]; 10 nM): 30 min
- MEK phosphorylation status after pulse treatment (HT-29 cells [1]): disappearance of p-MEK was sustained for a considerable period
- ERK phosphorylation (HT-29 cells [1]; 24 h): inhibited ERK phosphorylation
- p-MEK level (HT-29 cells [1]; 24 h): decreased the p-MEK level
- concentration at which accumulation of p15INK4b and p27KIP1 and decrease of c-Myc and Cyclin D1 were observed [2]: 1 nM
- Tm of u-MEK with compound (CD) (Inactive u-MEK (K97R)): 57.5 °C
- IC50 (HT-29 cells [3]): 0.57 nM
- ERK phosphorylation in grafted cancer tissues ([4]; animals, after oral administration): inhibited ERK phosphorylation
- half-life in the blood ([4]; in vivo, po): long half-life
- p-MEK levels in HCT-15, LS-174T, T84 and LoVo cells (various cancer cells; 100 nM): did not decrease or decrease to a lesser extent
- p-MEK levels in HT-29, COLO-205, HCT-116, SW480 and SW620 cells (various cancer cells; 100 nM (HT-29 10 nM)): decreased
- ERK phosphorylation in various cancer cell lines (various cancer cells; 100 nM (HT-29 10 nM), 10 cell lines): efficiently inhibited in almost all cell lines, except for COLO-320DM
- t1/2 [5]: about 4 days
- Ki' (MEK/ATP vs. compound) (p-MEK1): 290 ± 80 nM
- phosphorylation of the Raf kinase substrate MBP (Raf kinase): not inhibited
